US9914736B2, “TrKA kinase inhibitors, compositions and methods thereof” (Merck Sharp & Dohme Corp., priority 2014, dated 2018)

Target: human TrkA receptor (Homo sapiens (Human), UniProt P04629)
Assay: DiscoverX PathHunter TrkA functional assay
Type: cell-based
Settings: U2OS cells expressing human TrkA-ProLink, Shc1-EA and p75NTR; compound 1 h, then NGF at ~80% of maximal response for 3 h; luminescence
Description: TrkA functional activity was measured using a DiscoverX PathHunter assay. In this assay, U2OS cells express the human TrkA receptor as a fusion with the weakly complementing fragment of B-galactosidase, which DiscoverX calls “Prolink (PK)”; additionally, Shc1 is fused with a larger fragment, which is called “Enzyme Acceptor (EA)”. Activation of the TrkA receptor, upon NGF addition, results in the kinase domain being phosphorylated, resulting in subsequent recruitment of Shc1-EA protein. That recruitment results in an active B-galactosidase enzyme that is detected by addition of a chemiluminescent substrate. The human p75^NTR protein was also expressed as a co-receptor for NGF.
All reagents were purchased from DiscoverX, except for the receptor agonists (NGF, BDNF, NT3) which were purchased from Peprotech. Cells were expanded and frozen into cryovials, and stored in the vapor phase of liquid nitrogen, and thawed immediately before use. Thawed cells were added to a 384-well plate at 7500 cells/well, and allowed to incubate overnight. Compound at various concentrations was added the following morning and allowed to incubate on cells for 1 h. Then, NGF was added at a concentration sufficient to elicit ˜80% of a maximal response and allowed to incubate for 3 h at ambient temperature. DiscoverX PathHunter detection reagent was then added and the plate was further incubated for 1 h in the dark. The plate was then read via luminescence on the Perkin Elmer Envision.

Sequence of human TrkA receptor (P04629 33-796): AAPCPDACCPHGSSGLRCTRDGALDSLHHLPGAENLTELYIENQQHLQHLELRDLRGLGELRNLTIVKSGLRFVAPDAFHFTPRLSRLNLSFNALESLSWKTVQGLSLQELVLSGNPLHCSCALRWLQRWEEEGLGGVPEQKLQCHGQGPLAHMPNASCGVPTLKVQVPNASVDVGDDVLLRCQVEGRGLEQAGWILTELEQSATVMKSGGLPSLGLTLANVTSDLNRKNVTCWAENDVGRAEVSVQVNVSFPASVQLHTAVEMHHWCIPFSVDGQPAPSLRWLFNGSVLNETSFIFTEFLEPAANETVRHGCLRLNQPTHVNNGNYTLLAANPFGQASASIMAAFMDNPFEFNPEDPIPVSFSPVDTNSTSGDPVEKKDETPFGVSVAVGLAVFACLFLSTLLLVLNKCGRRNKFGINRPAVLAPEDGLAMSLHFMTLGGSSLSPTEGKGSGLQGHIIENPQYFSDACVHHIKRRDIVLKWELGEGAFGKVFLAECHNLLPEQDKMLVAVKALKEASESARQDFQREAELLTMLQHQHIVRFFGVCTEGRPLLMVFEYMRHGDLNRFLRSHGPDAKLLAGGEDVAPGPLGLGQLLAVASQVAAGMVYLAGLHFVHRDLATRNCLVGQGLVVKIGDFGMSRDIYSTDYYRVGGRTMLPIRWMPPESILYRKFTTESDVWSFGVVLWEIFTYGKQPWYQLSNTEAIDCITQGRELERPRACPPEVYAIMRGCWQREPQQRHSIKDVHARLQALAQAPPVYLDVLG

| SMILES | IC50 |
| --- | --- |
| Cn1cc(Cc2cc(NC(=O)c3ccc(C(F)(F)F)c(-c4ccn(C)n4)c3)n(-c3ccc(F)cc3)n2)cn1 [Compound 90, N-(1-(4-fluorophenyl)-3-((1-methyl-1H-pyrazol-4-yl)methyl)-1H-pyrazol-5-yl)-3-(1-methyl-1H-pyrazol-3-yl)-4-(trifluoromethyl)benzamide] | 3.6 nM |
| Cn1ccc(-c2cc(C(=O)Nc3c4c(nn3-c3ccccc3)CC(=O)NC4)c(F)cc2C(F)(F)F)n1 [Compound 108, 2-fluoro-5-(1-methyl-1H-pyrazol-3-yl)-N-(6-oxo-2-phenyl-4,5,6,7-tetrahydro-2H-pyrazolo[4,3-c]pyridin-3-yl)-4-(trifluoromethyl)benzamide] | 4.6 nM |
| Cc1nc(-c2cc(C(=O)Nc3cc(-c4ccncc4)nn3-c3ccc(F)cc3)ccc2C(F)(F)F)no1 [Compound 29, N-[1-(4-fluorophenyl)-3-pyridin-4-yl-1H-pyrazol-5-yl]-3-(5-methyl-1,2,4-oxadiazol-3-yl)-4-(trifluoromethyl)benzamide] | 530 nM |
| Cn1ccc(-c2cc(C(=O)Nc3c(-c4ccccc4)ncn3C)ccc2C(F)(F)F)n1 [Compound 12, N-(1-methyl-4-phenyl-1H-imidazol-5-yl)-3-(1-methyl-1H-pyrazol-3-yl)-4-(trifluoromethyl)benzamide] | 19 nM |
| Cn1ccc(-c2cc(C(=O)Nc3cc(-c4n[nH]c(=O)n4C)nn3-c3ccccc3)ccc2C(F)(F)F)n1 [Compound 16, N-[3-(4-methyl-5-oxo-4,5-dihydro-1H-1,2,4-triazol-3-yl)-1-phenyl-1H-pyrazol-5-yl]-3-(1-methyl-1H-pyrazol-3-yl)-4-(trifluoromethyl)benzamide] | 46 nM |
| Cc1cc(-n2nc(C(=O)N(C)C)cc2NC(=O)c2ccc(C(F)(F)F)c(-c3ccn(C)n3)c2)[nH]n1 [Compound 7, N,N,5′-trimethyl-5-({[3-(1-methyl-1H-pyrazol-3-yl)-4-(trifluoromethyl)phenyl]carbonyl}amino)-2′H-1,3′-bipyrazole-3-carboxamide] | 32 nM |
| O=C(Nc1cc(-c2ccncc2)nn1-c1cc(C(F)(F)F)n[nH]1)c1ccc(Cl)c(-c2cc[nH]n2)c1 [Compound 41, 4-chloro-3-(1H-pyrazol-3-yl)-N-[3-pyridin-4-yl-5′-(trifluoromethyl)-2′H-1,3′-bipyrazol-5-yl]benzamide] | 240 nM |
| CC(=O)n1cc(NC(=O)c2ccc(C(F)(F)F)c(-c3ccn(C)n3)c2)c(-c2ccccc2)n1 [Compound 33, N-(1-acetyl-3-phenyl-1H-pyrazol-4-yl)-3-(1-methyl-1H-pyrazol-3-yl)-4-(trifluoromethyl)benzamide] | 18 nM |
| O=C(Nc1cc(-c2ncccn2)nn1-c1ccc(F)cc1)c1cc(-c2cc[nH]n2)c(C(F)(F)F)cc1F [Compound 64, 2-fluoro-N-[1-(4-fluorophenyl)-3-pyrimidin-2-yl-1H-pyrazol-5-yl]-5-(1H-pyrazol-3-yl)-4-(trifluoromethyl)benzamide] | 22 nM |
| Cn1ccc(-c2cc(C(=O)Nc3oncc3-c3ccccc3)ccc2C(F)(F)F)n1 [Compound 17, 3-(1-methyl-1H-pyrazol-3-yl)-N-(4-phenylisoxazol-5-yl)-4-(trifluoromethyl)benzamide] | 170 nM |
| O=C(Nc1cc(CO)nn1-c1ccc(F)cc1)c1cc(-c2ncccn2)c(C(F)(F)F)cc1F [Compound 97, 2-fluoro-N-(1-(4-fluorophenyl)-3-(hydroxymethyl)-1H-pyrazol-5-yl)-5-(pyrimidin-2-yl)-4-(trifluoromethyl)benzamide] | 14 nM |
| O=C(NC1CC1)c1cc(NC(=O)c2ccc(C(F)(F)F)cc2Cl)n(-c2ccccc2)n1 [Compound 2, 5-({[2-chloro-4-(trifluoromethyl)phenyl]carbonyl}amino)-N-cyclopropyl-1-phenyl-1H-pyrazole-3-carboxamide] | 60 nM |
| Cc1nc(-c2ccccc2)c(NC(=O)c2cc(-c3ccn(C)n3)c(C(F)(F)F)cc2F)n1C [Compound 63, N-(1,2-dimethyl-4-phenyl-1H-imidazol-5-yl)-2-fluoro-5-(1-methyl-1H-pyrazol-3-yl)-4-(trifluoromethyl)benzamide] | 8.4 nM |
| Cc1cc(-n2nc(CNCCO)cc2NC(=O)c2ccc(C(F)(F)F)c(-c3ccn(C)n3)c2)[nH]n1 [Compound 68, N-(3-{[(2-hydroxyethyl)amino]methyl}-5′-methyl-2′H-1,3′-bipyrazol-5-yl)-3-(1-methyl-1H-pyrazol-3-yl)-4-(trifluoromethyl)benzamide] | 240 nM |
| CC(O)c1ccc(-c2cc(NC(=O)c3cc(-c4ncccn4)c(C(F)(F)F)cc3F)n(-c3ccc(F)cc3)n2)nc1 (single isomer, unassigned) [Compound 100, (S or R)-2-fluoro-N-(1-(4-fluorophenyl)-3-(5-(1-hydroxyethyl)pyridin-2-yl)-1H-pyrazol-5-yl)-5-(pyrimidin-2-yl)-4-(trifluoromethyl)benzamide] | 12 nM |
| CC(O)c1cnc(-c2cc(NC(=O)c3cc(-c4ccn(C)n4)c(C(F)(F)F)cc3F)n(-c3ccc(F)cc3)n2)nc1 (single isomer, unassigned) [Compound 107, (S or R)-2-fluoro-N-(1-(4-fluorophenyl)-3-(5-(1-hydroxyethyl)pyrimidin-2-yl)-1H-pyrazol-5-yl)-5-(1-methyl-1H-pyrazol-3-yl)-4-(trifluoromethyl)benzamide] | 1 nM |
| O=C(Nc1cc(-c2ccc(=O)[nH]n2)nn1-c1ccccc1)c1ccc(C(F)(F)F)c(-c2ccn(CC(F)(F)F)n2)c1 [Compound 70, N-[3-(6-oxo-1,6-dihydropyridazin-3-yl)-1-phenyl-1H-pyrazol-5-yl]-3-[1-(2,2,2-trifluoroethyl)-1H-pyrazol-3-yl]-4-(trifluoromethyl)benzamide] | 390 nM |
| Cn1ccc(-c2cc(C(=O)Nc3cc(Cn4cnnn4)nn3-c3ccccc3)ccc2C(F)(F)F)n1 [Compound 66, 3-(1-methyl-1H-pyrazol-3-yl)-N-[1-phenyl-3-(1H-tetrazol-1-ylmethyl)-1H-pyrazol-5-yl]-4-(trifluoromethyl)benzamide] | 2.3 nM |
| Cc1cc(-n2nc(CC(=O)Nc3ccccn3)cc2NC(=O)c2ccc(C(F)(F)F)c(-c3ccn(C)n3)c2)[nH]n1 [Compound 22, N-{5′-methyl-3-[2-oxo-2-(pyridin-2-ylamino)ethyl]-2′H-1,3′-bipyrazol-5-yl}-3-(1-methyl-1H-pyrazol-3-yl)-4-(trifluoromethyl)benzamide] | 5.6 nM |
| Cn1ccc(-c2cc(C(=O)Nc3cc(Cc4cnc(N)nc4)nn3-c3ccc(F)cc3)ccc2C(F)(F)F)n1 [Compound 91, N-(3-((2-aminopyrimidin-5-yl)methyl)-1-(4-fluorophenyl)-1H-pyrazol-5-yl)-3-(1-methyl-1H-pyrazol-3-yl)-4-(trifluoromethyl)benzamide] | 6.1 nM |
| Cn1ccc(-c2cc(C(=O)Nc3cc(Cc4cncnc4)nn3-c3ccc(F)cc3)ccc2C(F)(F)F)n1 [Compound 95, N-(1-(4-fluorophenyl)-3-(pyrimidin-5-ylmethyl)-1H-pyrazol-5-yl)-3-(1-methyl-1H-pyrazol-3-yl)-4-(trifluoromethyl)benzamide] | 1.4 nM |
| Cc1cc(-n2nc(C(=O)NCc3ccns3)cc2NC(=O)c2ccc(C(F)(F)F)c(-c3ccn(C)n3)c2)[nH]n1 [Compound 25, N-(isothiazol-5-ylmethyl)-5′-methyl-5-({[3-(1-methyl-1H-pyrazol-3-yl)-4-(trifluoromethyl)phenyl]carbonyl}amino)-2′H-1,3′-bipyrazole-3-carboxamide] | 1.7 nM |
| Cn1ccc(-c2cc(C(=O)Nc3cc(Cc4nnc(N)o4)nn3-c3ccc(F)cc3)ccc2C(F)(F)F)n1 [Compound 92, N-(3-((5-amino-1,3,4-oxadiazol-2-yl)methyl)-1-(4-fluorophenyl)-1H-pyrazol-5-yl)-3-(1-methyl-1H-pyrazol-3-yl)-4-(trifluoromethyl)benzamide] | 1.3 nM |
| Cn1ccc(-c2cc(C(=O)Nc3cc(Cc4ccc(=O)[nH]n4)nn3-c3ccccc3)ccc2C(F)(F)F)n1 [Compound 28, 3-(1-methyl-1H-pyrazol-3-yl)-N-{3-[(6-oxo-1,6-dihydropyridazin-3-yl)methyl]-1-phenyl-1H-pyrazol-5-yl}-4-(trifluoromethyl)benzamide] | 6.6 nM |
| Cn1ccc(-c2cc(C(=O)Nc3cc(Cc4ccc(=O)[nH]n4)nn3-c3ccc(F)cc3)c(F)cc2C(F)(F)F)n1 [Compound 105, 2-fluoro-N-(1-(4-fluorophenyl)-3-((6-oxo-1,6-dihydropyridazin-3-yl)methyl)-1H-pyrazol-5-yl)-5-(1-methyl-1H-pyrazol-3-yl)-4-(trifluoromethyl)benzamide] | 0.98 nM |
| Cc1cc(-n2nc(-c3cnn(C)c3)cc2NC(=O)c2ccc(C(F)(F)F)c(-c3cccnc3)c2)n[nH]1 [Compound 8, N-(1″,5-dimethyl-1H,1″H-3,1′:3′,4″-terpyrazol-5′-yl)-3-pyridin-3-yl-4-(trifluoromethyl)benzamide] | 2100 nM |
| CNC(=O)c1cc(NC(=O)c2cc(-c3ncccn3)c(C(F)(F)F)cc2F)n(-c2ccc(F)cc2)n1 [Compound 86, 5-(2-fluoro-5-(pyrimidin-2-yl)-4-(trifluoromethyl)benzamido)-1-(4-fluorophenyl)-N-methyl-1H-pyrazole-3-carboxamide] | 7 nM |
| O=C(Nc1cc(Cn2cccn2)nn1-c1ccc(F)cc1)c1cc(-c2ncccn2)c(C(F)(F)F)cc1F [Compound 87, N-(3-((1H-pyrazol-1-yl)methyl)-1-(4-fluorophenyl)-1H-pyrazol-5-yl)-2-fluoro-5-(pyrimidin-2-yl)-4-(trifluoromethyl)benzamide] | 6.6 nM |
| Cc1cnn(-c2ccccc2)c1NC(=O)c1cc(-c2ccn(C)n2)c(C(F)(F)F)cc1Cl [Compound 46, 2-chloro-N-(4-methyl-1-phenyl-1H-pyrazol-5-yl)-5-(1-methyl-1H-pyrazol-3-yl)-4-(trifluoromethyl)benzamide] | 13 nM |
| Cc1cc(NC(=O)c2cc(-c3ccn(C)n3)c(C(F)(F)F)cc2Cl)n(-c2cc(C)[nH]n2)n1 [Compound 48, 2-chloro-N-(3,5′-dimethyl-1′H-1,3′-bipyrazol-5-yl)-5-(1-methyl-1H-pyrazol-3-yl)-4-(trifluoromethyl)benzamide] | 0.82 nM |
